ChEMBL document CHEMBL3867475, “Discovery of furo[2,3-d][1,3]thiazinamines as beta amyloid cleaving enzyme-1 (BACE1) inhibitors” (Bioorg Med Chem Lett, 2016)

What was measured:
[1] = Chemical stability of compound in aqueous condition at pH 1 to 10 at 40 degC measured up to 24 hrs; type: physicochemical; settings: buffer, pH 1, 24 h
[2] = Permeability from apical side to basolateral side in human Caco2 cells; type: ADME, cell-based; settings: Caco-2, read-out: permeability
[3] = Permeability from basolateral side to apical side in human Caco2 cells; type: ADME, cell-based; settings: Caco-2, read-out: permeability

Stability [1] | Papp A→B [2] | Papp B→A [3] | Compound
Stable |  |  | COc1cnc(C(=O)Nc2ccc(F)c([C@@]34N=C(N)SC[C@@H]3CCO4)c2)cn1
Stable |  |  | NC1=N[C@@]2(c3cc(NC(=O)c4ccc(OC(F)F)cn4)ccc3F)OCC[C@H]2CS1
Stable | 17.7 ×10⁻⁶ cm/s | 24.4 ×10⁻⁶ cm/s | NC1=N[C@@]2(c3cc(NC(=O)c4ccc(Cl)cn4)ccc3F)OCC[C@H]2CS1
Stable |  |  | NC1=N[C@@]2(c3cc(NC(=O)c4ncc(Cl)cc4Cl)ccc3F)OCC[C@H]2CS1
Stable |  |  | NC1=N[C@@]2(c3cc(NC(=O)c4ccccn4)ccc3F)OCC[C@H]2CS1
Stable |  |  | NC1=N[C@@]2(c3cc(NC(=O)c4ncccc4F)ccc3F)OCC[C@H]2CS1
Stable | 16.4 ×10⁻⁶ cm/s | 54.2 ×10⁻⁶ cm/s | N#Cc1ccc(C(=O)Nc2ccc(F)c([C@@]34N=C(N)SC[C@@H]3CCO4)c2)nc1
Stable |  |  | NC1=N[C@@]2(c3cc(NC(=O)c4ccc(Br)cn4)ccc3F)OCC[C@H]2CS1
Stable |  |  | NC1=N[C@@]2(c3cc(NC(=O)c4ccc(F)cn4)ccc3F)OCC[C@H]2CS1
